Patent US11345713B2, “Compounds as modulators of TLR2 signaling” (Neuropore Therapies, inc., priority 2018, dated 2022)

Assays:
[1] = biological target: T1, human TLR2 (Pam2CSK4, TLR2/6 agonist) in HEK-Blue hTLR2 cells (Homo sapiens, UniProt O60603); test: HEK-Blue hTLR2 antagonism assay (SEAP reporter) with Pam2CSK4 as agonist; format: cell-based; details: 2 h compound pre-incubation, approx. 3×EC50 Pam2CSK4, 18 h, SEAP OD 655 nm, background subtracted
T1 construct: host or cells: HEK-Blue hTLR2 (HEK-293)
Method in brief: (§1)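 HEK-Blue hTLR2 cells (HEK-293 with human TLR2 and NFκB-driven SEAP), 1×10^5/well, pretreated with compound (1% DMSO final) for 2 h, then stimulated with about 3×EC50 Pam3CSK4 or Pam2CSK4 (EC50 set each run) for 18 h at 37 °C. Supernatant SEAP read by Quanti-Blue at OD 655 nm after 15 min; background-subtracted IC50.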

[2] = biological target: T2, human TLR2 (Pam3CSK4, TLR1/2 agonist) in HEK-Blue hTLR2 cells (Homo sapiens, UniProt O60603); test: HEK-Blue hTLR2 antagonism assay (SEAP reporter) with Pam3CSK4 as agonist; format: cell-based; details: 2 h compound pre-incubation, approx. 3×EC50 Pam3CSK4, 18 h, SEAP OD 655 nm, background subtracted
T2 construct: host or cells: HEK-Blue hTLR2 (HEK-293)
Method in brief: as §1

T1 sequence (O60603 19-784 limits assumed): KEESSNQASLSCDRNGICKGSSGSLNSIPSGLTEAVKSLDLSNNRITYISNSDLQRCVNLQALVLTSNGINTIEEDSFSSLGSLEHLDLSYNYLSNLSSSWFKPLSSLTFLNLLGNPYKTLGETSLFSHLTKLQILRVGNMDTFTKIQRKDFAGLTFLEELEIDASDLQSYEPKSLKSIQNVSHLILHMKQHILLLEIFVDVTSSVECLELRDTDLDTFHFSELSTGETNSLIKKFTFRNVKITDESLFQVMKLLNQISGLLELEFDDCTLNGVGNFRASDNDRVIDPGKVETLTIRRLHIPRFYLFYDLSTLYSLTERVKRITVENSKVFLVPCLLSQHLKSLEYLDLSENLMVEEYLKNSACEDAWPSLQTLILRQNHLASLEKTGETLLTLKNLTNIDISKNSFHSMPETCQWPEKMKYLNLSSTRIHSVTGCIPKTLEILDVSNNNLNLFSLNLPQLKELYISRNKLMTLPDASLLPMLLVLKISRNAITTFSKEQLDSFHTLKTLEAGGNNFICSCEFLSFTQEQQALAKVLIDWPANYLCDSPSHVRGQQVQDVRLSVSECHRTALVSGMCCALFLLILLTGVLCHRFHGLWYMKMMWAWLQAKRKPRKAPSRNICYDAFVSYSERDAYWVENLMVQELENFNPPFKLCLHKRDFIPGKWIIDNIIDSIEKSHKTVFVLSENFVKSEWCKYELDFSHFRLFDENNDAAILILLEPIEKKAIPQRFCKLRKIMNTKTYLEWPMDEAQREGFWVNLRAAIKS
T2 sequence (O60603 19-784 limits assumed): as above

IC50 [1] [µM]	IC50 [2] [µM]	SMILES
4.4	3.6	CC(C)(C)OC(=O)N1CCN(/N=C/c2cc(/C=C/c3ccc(N4CCCC4)cc3)cc(F)c2O)CC1 [compound 95, tert-butyl 4-(((E)-3-fluoro-2-hydroxy-5-((E)-4-(pyrrolidin-1-yl)styryl)benzylidene)amino)piperazine-1-carboxylate]
3.2	1.3	Oc1c(F)cc(/C=C/c2ccc(N3CCCC3)cc2)cc1/C=N/N1CCNCC1 [compound 96]
